# Reference: patent publication US9115149B2, “Heterocyclic compounds as inhibitors of fatty acid biosysnthesis for bacterial infections” (Vitas Pharma Research Private Limited, priority 2011, dated 2015)
# Where two headings read alike, the source gives them in different places.
# Columns and labels:
# [1] = test system: Staphylococcus aureus (ATCC29213); test: MIC by microbroth dilution, methicillin sensitive S. aureus; assay type: cell-based; conditions: read-out: Minimum inhibitory concentration (MIC) Staphylococcus aureus (ATCC29213)
# Method: (§1) Shown below are the biological activities of representative compounds of the invention. The compounds were tested by the microbroth dilution method (National committee for Clinical Laboratory Standards, M07-A8, Volume 29, 2009) to determine the Minimum Inhibitory Concentration (MIC) against Methicillin sensitive and resistant Staphylococcus aureus. The MICs in the presence of 10% BSA was also tested. Further, select compounds were tested for metabolic stability using mouse liver microsomes based on published protocols (Journal of Biological Sciences, 2008, 8, 1110-1114).
# [2] = test system: Methicillin resistant Staphylococcus aureus (ATCC 33591); test: MIC by microbroth dilution, methicillin resistant S. aureus; assay type: cell-based; conditions: ATCC33591, read-out: Minimum inhibitory concentration (MIC) Methicillin resistant Staphylococcus aureus (ATCC 33591)
# Method: as §1
# [3] = test system: Bacillus subtilis (ΔFabI, ΔFabL; Pxylose SaFabI); test: Target specificity: MIC in B. subtilis expressing S. aureus FabI under xylose inducible promoter; assay type: cell-based
# Method: To test for target specificity, the MIC was determined in a Bacillus subtilis strain in which the two FabI homologues (FabI and FabL) were deleted and replaced with S. aureus FabI (Sa FabI) under a Xylose inducible promoter. By varying the amount of xylose in the growth medium, the expression of FabI was proportionately modified. Compounds specifically targeting Sa FabI show an increased MIC when higher amounts of FabI are present in the cell (high Xylose concentrations). In contrast, when FabI levels are low, the cell becomes hypersusceptible, reducing the MIC (low Xylose concentrations). […] Shown below are data for target specificity.
# [4] = Metabolic stability in mouse liver microsomes; assay type: in vitro ADME
# Method: as §1
# [5] = Pharmacokinetic profile in male Swiss albino mice; conditions: mouse, in vivo
# Method: The following compounds were dosed to male Swiss albino mice to determine the pharmacokinetic profiles.
# [6] = test system: Methicillin resistant Staphylococcus aureus (ATCC 33591); test: MIC in the presence of BSA; assay type: cell-based; conditions: ATCC33591, 10% BSA
# Method: as §1
# [7] = read-out: MIC in the presence of 0.005% Xylose (low Xylose concentration)
# [8] = read-out: MIC in the presence of 0.5% Xylose (high Xylose concentration)
# [9] = intravenous single dose 5 mg/kg body weight
SMILES,MIC [1] [ng/mL],MIC [2] [ng/mL],"MIC [3, 7] [ng/mL]","MIC [3, 8] [ng/mL]",Metabolic stability (mouse liver microsomes) % of compound remaining after 30 minutes [4] [%],"AUC [5, 9] [ng·h/mL]","Cmax [5, 9] [ng/mL]","clearance [5, 9] [mL/min/kg]","half-life [5, 9] [min]",bioavailability ([5]; po) [%],MIC [6] [ng/mL]
"CNc1n[nH]c2ncc(/C=C/C(=O)N(C)Cc3cc4ccccc4n3C)cc12 [VT-02-00036, (E)-N-Methyl-3-(3-methylamino-1H-pyrazolo[3,4-b]pyridin-5-yl)-N-(1-methyl-1H-indol-2-ylmethyl)-acrylamide]",8000,8000,500,2000,,,,,,,
"CN(Cc1cc2ccccc2n1C)C(=O)/C=C/c1cnc2[nH]nc(N(C)C)c2c1 [VT-02-00039, (E)-3-(3-Dimethylamino-1H-pyrazolo[3,4-b]pyridin-5-yl)-N-methyl-N-(1-methyl-1H-indol-2-ylmethyl)-acrylamide]",2000,2000,60,1000,46,908,868,91.5,46.2,19,
"CN(Cc1cc2ccccc2n1C)C(=O)/C=C/c1cnc2[nH]c(=O)n(C)c2c1 [VT-02-00043, (E)-N-Methyl-N-(1-methyl-1H-indol-2-ylmethyl)-3-(1-methyl-2-oxo-2,3-dihydro-1H-imidazo[4,5-b]pyridin-6-yl)-acrylamide]",4000,8000,7.8,30,,,,,,,
"COc1n[nH]c2ncc(/C=C/C(=O)N(C)Cc3cc4ccccc4n3C)cc12 [VT-02-00046, (E)-3-(3-Methoxy-1H-pyrazolo[3,4-b]pyridin-5-yl)-N-methyl-N-(1-methyl-1H-indol-2-ylmethyl)-acrylamide]",> 32000,> 32000,> 32000,> 32000,,,,,,,
"CCn1c(=O)[nH]c2ncc(/C=C/C(=O)N(C)Cc3cc4ccccc4s3)cc21 [VT-02-00049, (E)-N-(benzo[b]thiophen-2-ylmethyl)-3-(1-ethyl-2-oxo-2,3-dihydro-1H-imidazo[4,5-b]pyridin-6-yl)-N-methylacrylamide]",500,500,0.48,31,44,,,,,,
"CN(Cc1cc2ccccc2n1C)C(=O)/C=C/c1cnc2c(c1)C(C)(C)C(=O)N2 [VT-02-00055, (E)-3-(3,3-dimethyl-2-oxo-2,3-dihydro-1H-pyrrolo[2,3-b]pyridin-5-yl)-N-methyl-N-((1-methyl-1H-indol-2-yl)methyl)acrylamide]",250,250,60,2000,40.3,,,,,,2000
"CN(Cc1cc2ccccc2s1)C(=O)/C=C/c1cnc2c(c1)C(C)(C)C(=O)N2 [VT-02-00066, (E)-N-(benzo[b]thiophen-2-ylmethyl)-3-(3,3-dimethyl-2-oxo-2,3-dihydro-1H-pyrrolo[2,3-b]pyridin-5-yl)-N-methylacrylamide]",500,500,7.8,1000,29,,,,,,4000
"Cc1c(CN(C)C(=O)/C=C/c2cnc3c(c2)C(C)(C)C(=O)N3)sc2ccccc12 [VT-02-00069, (E)-3-(3,3-dimethyl-2-oxo-2,3-dihydro-1H-pyrrolo[2,3-b]pyridin-5-yl)-N-methyl-N-((3-methylbenzo[b]thiophen-2-yl)methyl)acrylamide]",15,15,0.2,15,10,,,,,,1000
"CN(Cc1cc2ccccc2n1C)C(=O)/C=C/c1cnc2c(c1)C1(CCC1)C(=O)N2 [VT-02-00070, (E)-N-methyl-N-((1-methyl-1H-indol-2-yl)methyl)-3-(2′-oxo-1′,2′-dihydrospiro[cyclobutane-1,3′-pyrrolo[2,3-b]pyridine]-5′-yl)acrylamide]",500,500,< 0.000119,7.8,45,,,,,,2000
